The values below come from US7884242B2, “N-heterocyclylphthaldiamides as insecticides” (Bayer CropScience AG, priority 2004, dated 2011).

Series [1] is described as follows: log P determination by HPLC on reverse phase column, pH 2.3. Format: physicochemical. Conditions: reverse phase column (C 18), pH 2.3, 43° C.; for chromatographic logP: reverse phase HPLC column (C 18). As to the method:
The determination of the log P values given in the above table and preparation examples is carried out in accordance with EEC directive 79/831 Annex V.A8 by HPLC (High Performance Liquid Chromatography) on a reverse phase column (C 18). Temperature: 43° C. The determination is carried out under acidic conditions at pH 2.3 with 0.1% aqueous phosphoric acid and acetonitrile as eluents; linear gradient of 10% acetonitrile to 95% acetonitrile. Calibration was is carried out with unbranched alkan-2-ones (with 3 to 16 carbon atoms) of known log P values (Determination of log P values by the retention times by linear interpolation between two sequential alkanones).

Series [2] concerns green peach aphid (Myzus persicae). The experiment in a line: Myzus test (spray treatment). The series is classed as in vivo. The conditions noted are these: for pest or weed control at 100 g/ha: Myzus persicae, in Brassica oleracea, 120 h, read-out: Death rate in % after 5d; for activity in Myzus test (spray treatment): statement in words. As to the method: [table] For the preparation of a suitable active compound formulation 1 part by weight of the active compound is mixed with the above amounts of solvent and emulsifier and the concentrate is diluted to the desired concentration with water containing emulsifier. China cabbage slices (Brassica pekinensis) that are infected with all stages of the green peach aphid (Myzus persicae) are sprayed with an active compound preparation at the desired concentration. After the desired time the activity in % is determined. Here 100% means that all aphids were killed; 0% means that no aphids were killed.

The subject of series [3] is caterpillars of the fall army worm (Spodoptera frugiperda). The experiment in a line: Spodoptera frugiperda test (spray treatment). Format: in vivo. As to the method: [table] For the preparation of a suitable active compound formulation 1 part by weight of the active compound is mixed with the above amounts of solvent and emulsifier and the concentrate is diluted to the desired concentration with water containing emulsifier. Maize leaf sections (Zea mays) are sprayed with an active compound preparation of the desired concentration and after drying infected with caterpillars of the fall army worm (Spodoptera frugiperda). After the desired time the activity in % is determined. Here 100% means that all caterpillars were killed; 0% means that no caterpillars were killed.

Setting [4] is: 100 g/ha, spray treatment, China cabbage slices, after 5 d.

Counter-ions that a name gives are not always drawn.

On to `Cc1nc(Cn2nc(C(F)(F)F)cc2C(F)(F)F)ccc1NC(=O)c1cccc(Br)c1C(=O)NC(C)CS(C)(=O)=O` (stereo not shown) [Example 45], for which, in series [1], the “log P (pH 2.3)” value is given as “log P (pH 2.3): 2.76”.

The term chromatographic logP denotes a lipophilicity value derived from retention on a column. A higher chromatographic logP goes with higher lipophilicity. With `Cc1nc(Cn2nc(C(F)(F)F)nc2C(F)(F)F)ncc1NC(=O)c1cccc(I)c1C(=O)N[C@@H](C)C[S+](C)[O-]` (stereo partly shown) [Example 40], in series [1], the chromatographic logP is 2.13. For the same compound, the pest or weed control at 100 g/ha in series [2] (setting [4]) came to 100%. Also, in series [2], the “activity in Myzus test (spray treatment)” value was “good activity”.

In the case of `CSC[C@H](C)/N=C1\OC(=O)c2cccc(I)c21` [II-1, 4-iodo-3-[(1S)-1-methyl-2-methylsulphanylethylimino]-3H-isobenzofuran-1-one], the chromatographic logP in series [1] came out at 3.87.

In series [1], `Cc1nc(Cn2nc(C(F)(F)F)nc2C(F)(F)F)ncc1NC(=O)c1cccc(Br)c1C(=O)N[C@@H](C)CS(C)(=O)=O` [Example 37] displayed a chromatographic logP of 2.49. In series [2] (setting [4]), the pest or weed control at 100 g/ha is 100%. Moreover, the “activity in Myzus test (spray treatment)” value in series [2] was “good activity”.

With `Cc1nc(Cn2nc(C(F)(F)C(F)(F)F)cc2C(F)(F)C(F)(F)F)ncc1NC(=O)c1cccc(Cl)c1C(=O)NC(C)CS(C)(=O)=O` (stereo not shown) [Example 25], the “log P (pH 2.3)” value in series [1] is given as “log P (pH 2.3): 3.29”.

Turning to `Cc1nc(Cn2nc(C(F)(F)F)cc2C(F)(F)F)ncc1NC(=O)c1cccc(Cl)c1C(=O)N[C@@H](C)C[S+](C)[O-]` (stereo partly shown) [Example 39], the “Death rate in % after 5d” value in series [2] (setting [4]) is listed as 100%. Also, the “activity in Myzus test (spray treatment)” value in series [2] is on record as “good activity”.

Take `Cc1nc(Cn2nc(C(F)(F)F)nc2C(F)(F)F)ncc1NC(=O)c1cccc(Br)c1C(=O)N[C@@H](C)C[S+](C)[O-]` (stereo partly shown) [Example 36]: the chromatographic logP in series [1] came to 2.07. Also, in series [2] (setting [4]), the pest or weed control at 100 g/ha is 100%. Also, in series [2], the “activity in Myzus test (spray treatment)” value is recorded as “good activity”.

Take `CSCC(C)NC(=O)c1c(Cl)cccc1C(=O)Nc1ccc(Cn2nc(C(F)(F)C(F)(F)F)c(C(F)(F)F)c2F)nc1C` (stereo not shown) [Example 46]: the “log P (pH 2.3)” value in series [1] was “log P (pH 2.3): 4.15”.

In the case of `Cc1nc(Cn2nc(C(F)F)cc2C(F)F)ncc1NC(=O)c1cccc(Cl)c1C(=O)NC(C)CS(C)(=O)=O` (stereo not shown) [Example 33], the “log P (pH 2.3)” value in series [1] is given as “log P (pH 2.3): 1.89”.

For the compound `Cc1nc(Cn2nc(C(F)(F)F)cc2C(F)(F)F)ncc1NC(=O)c1cccc(Br)c1C(=O)N[C@@H](C)C[S+](C)[O-]` (stereo partly shown) [Example 23], in series [1], the chromatographic logP was found to be 2.2. Moreover, the pest or weed control at 100 g/ha in series [2] (setting [4]) amounted to 80%. Besides, the “activity in Myzus test (spray treatment)” value in series [2] is recorded as “good activity”.

Compound `Cc1nc(Cn2nc(C(F)(F)F)cc2C(F)(F)F)ncc1C(=O)O` [2-(3,5-bistrifluoromethylpyrazol-1-yl-methyl)-4-methylpyrimidin-5-carboxylic acid] displayed a chromatographic logP in series [1] of 2.68.

As for `CSCC(C)NC(=O)c1c(Cl)cccc1C(=O)Nc1cnc(Cn2nc(C(F)F)cc2C(F)F)nc1C` (stereo not shown) [Example 35], the “log P (pH 2.3)” value in series [1] was “log P (pH 2.3): 2.65”.

With `CSC[C@H](C)NC(=O)c1c(Br)cccc1C(=O)Nc1cnc(Cn2nc(C(F)(F)C(F)(F)F)nc2C(F)(F)F)nc1C` [Example 31], the chromatographic logP in series [1] stood at 3.67. The pest or weed control at 100 g/ha in series [2] (setting [4]) was 100%. Further, the “activity in Myzus test (spray treatment)” value in series [2] was “good activity”. For the same compound, the pest or weed control at 4 g/ha in series [3] (Spodoptera frugiperda, 168 h, 4 g/ha, spray treatment, maize leaf sections, after 7 d, read-out: Death rate in % after 7d) was 100%. In addition, the “activity in Spodoptera frugiperda test (spray treatment)” value in series [3] (statement in words) was “good activity”.

Regarding `CSC[C@H](C)NC(=O)c1c(Cl)cccc1C(=O)Nc1cnc(Cn2nc(C(F)(F)F)cc2C(F)(F)F)nc1C` [Example 4, N^1-[2-(3,5-bis-trifluoromethyl-pyrazol-1-ylmethyl)-4-methylpyrimidin-5-yl]-3-chloro-N^2-(S-1-methyl-2-methylsulphanylethyl)phthalamide], the chromatographic logP in series [1] stood at 3.39.

The compound `Cc1nc(Cn2nc(C(F)(F)F)cc2C(F)(F)F)ncc1NC(=O)OC(C)(C)C` [VI-1, tert-butyl [2-(3,5-bistrifluoromethylpyrazol-1-ylmethyl)-4-methylpyrimidin-5-yl]carbamidate] returned a chromatographic logP in series [1] of 3.84.

In series [1], `CSC[C@H](C)NC(=O)c1c(Cl)cccc1C(=O)Nc1cc(Cn2nc(C(F)(F)F)nc2C(F)(F)F)sc1C` [Example 3] came in with a chromatographic logP of 3.8.

The compound `Cc1nc(Cn2nc(C(F)(F)F)cc2C(F)(F)F)ncc1NC(=O)c1cccc(Cl)c1C(=O)N[C@@H](C)C[S+](C)[O-]` (stereo partly shown) [Example 5, N^1-[2-(3,5-bistrifluoromethylpyrazol-1-ylmethyl)-4-methylpyrimidin-5-yl]-3-chloro-N^2-(S-2-methanesulphinyl-1-methylethyl)phthalamide] registered a chromatographic logP in series [1] of 2.17. In addition, in series [2] (setting [4]), the pest or weed control at 100 g/ha stood at 80%. The “activity in Myzus test (spray treatment)” value in series [2] is listed as “good activity”.

For the compound `CSCC(C)NC(=O)c1c(Cl)cccc1C(=O)Nc1ccc(Cn2nc(C(F)(F)C(F)(F)F)nc2C(F)(F)F)nc1C` (stereo not shown) [Example 43], the “log P (pH 2.3)” value in series [1] was “log P (pH 2.3): 3.80”.

Compound `CSC[C@H](C)NC(=O)c1c(I)cccc1C(=O)Nc1cnc(Cn2nc(C(F)(F)F)nc2C(F)(F)F)nc1C` [Example 22] gave a chromatographic logP in series [1] of 3.35. In series [2] (setting [4]), the pest or weed control at 100 g/ha was 90%. Further, in series [2], the “activity in Myzus test (spray treatment)” value is given as “good activity”.

With `Cc1nc(Cn2nc(C(F)(F)F)cc2C(F)(F)F)ncc1NC(=O)c1cccc(Cl)c1C(=O)N[C@@H](C)CS(C)(=O)=O` [Example 38], in series [2] (setting [4]), the pest or weed control at 100 g/ha was 100%.

In series [1], `CSC[C@H](C)NC(=O)c1c(Br)cccc1C(=O)Nc1cnc(Cn2nc(C(F)(F)F)nc2C(F)(F)F)nc1C` [Example 21] had a chromatographic logP of 3.29. Also, the pest or weed control at 100 g/ha in series [2] (setting [4]) was 100%. Besides, the “activity in Myzus test (spray treatment)” value in series [2] is given as “good activity”.

Take `Cc1nc(Cn2nc(C(F)(F)C(F)(F)F)cc2C(F)(F)C(F)(F)F)ncc1NC(=O)c1cccc(Cl)c1C(=O)NC(C)C[S+](C)[O-]` (stereo not shown) [Example 26]: the “log P (pH 2.3)” value in series [1] is recorded as “log P (pH 2.3): 2.91”.

For `Cc1nc(Cn2nc(C(F)(F)F)cc2C(F)(F)F)ncc1N` [IIIa-2, 2-(3,5-bis-trifluoromethylpyrazol-1-yl-methyl)-4-methylpyrimidin-5-yl-amine], the chromatographic logP in series [1] came to 2.43.

Compound `N=C(N)Cn1nc(C(F)(F)F)cc1C(F)(F)F` [IX-1, 2-(3,5-bistrifluoromethyl-pyrazol-1-yl)acetamidine hydrochloride] registered a chromatographic logP in series [1] of 0.74.

Consider `CSCC(C)NC(=O)c1c(Cl)cccc1C(=O)Nc1cnc(Cn2nc(C(F)(F)C(F)(F)F)cc2C(F)(F)C(F)(F)F)nc1C` (stereo not shown) [Example 27], for which the “log P (pH 2.3)” value in series [1] is on record as “log P (pH 2.3): 4.11”.

As for `Cc1nc(Cn2nc(C(F)F)cc2C(F)F)ncc1NC(=O)c1cccc(Cl)c1C(=O)NC(C)C[S+](C)[O-]` (stereo not shown) [Example 32], the “log P (pH 2.3)” value in series [1] was “log P (pH 2.3): 1.67”.

For the compound `Cc1nc(Cn2nc(C(F)(F)C(F)(F)F)nc2C(F)(F)F)ncc1NC(=O)c1cccc(Br)c1C(=O)N[C@@H](C)C[S+](C)[O-]` (stereo partly shown) [Example 28], the chromatographic logP in series [1] was determined as 2.42. Besides, the pest or weed control at 100 g/ha in series [2] (setting [4]) was found to be 100%. Further, the “activity in Myzus test (spray treatment)” value in series [2] is listed as “good activity”.

With `CSCC(C)NC(=O)c1c(Cl)cccc1C(=O)Nc1ccc(Cn2nc(C(F)(F)C(F)(F)F)nc2C(F)(F)C(F)(F)F)nc1C` (stereo not shown) [Example 47], the “log P (pH 2.3)” value in series [1] is listed as “log P (pH 2.3): 4.23”.

With `Cc1nc(Cn2nc(C(F)(F)F)cc2C(F)(F)F)ccc1NC(=O)c1cccc(Br)c1C(=O)NC(C)C[S+](C)[O-]` (stereo not shown) [Example 11], in series [1], the “log P (pH 2.3)” value is “log P (pH 2.3): 2.32”.

The compound `COC(=O)Cn1nc(C(F)(F)F)cc1C(F)(F)F` [methyl (3,5-bistrifluoromethyl-pyrazol-1-yl)acetate] came in with a chromatographic logP in series [1] of 2.93.

Turning to `CSCC(C)NC(=O)c1c(Cl)cccc1C(=O)Nc1ccc(Cn2nc(C(F)(F)C(F)(F)F)cc2C(F)(F)C(F)(F)F)nc1C` (stereo not shown) [Example 49], the “log P (pH 2.3)” value in series [1] is reported as “log P (pH 2.3): 4.37”.

Turning to `CSC[C@H](C)NC(=O)c1c(Cl)cccc1C(=O)Nc1cnc(Cn2nc(C(F)(F)F)nc2C(F)(F)F)nc1C` [Example 20], the chromatographic logP in series [1] came out at 3.24. The pest or weed control at 100 g/ha in series [2] (setting [4]) was found to be 100%. Moreover, the “activity in Myzus test (spray treatment)” value in series [2] was “good activity”.

With `CCOC(=O)c1cnc(Cn2nc(C(F)(F)F)cc2C(F)(F)F)nc1C` [Example V-1, ethyl 2-(3,5-bistrifluoromethyl-pyrazol-1-yl-methyl)-4-methylpyrimidine-5-carboxylate], the chromatographic logP in series [1] was found to be 3.96.

`CSCC(C)NC(=O)c1c(Cl)cccc1C(=O)Nc1ccc(Cn2nc(C(F)(F)C(F)(F)F)cc2C(F)(F)F)nc1C` (stereo not shown) [Example 42]: the “log P (pH 2.3)” value in series [1] is “log P (pH 2.3): 3.95”.

With `CSCC(C)NC(=O)c1c(I)cccc1C(=O)Nc1ccc(Cn2nc(C(F)(F)F)nc2C(F)(F)F)nc1C` (stereo not shown) [Example 12], the “log P (pH 2.3)” value in series [1] is on record as “log P (pH 2.3): 3.52”.
